Test results taken from article PMC12472322, “Structure–Activity Relationship Study of 3-Alkynyl-6-aryl-isothiazolo[4,3-b]pyridines as Dual Inhibitors of the Lipid Kinases PIKfyve and PIP4K2C” (Pharmaceuticals, 2025).

How the values were obtained:
PIKfyve = biological target: T1, PIKfyve (Homo sapiens, UniProt Q9Y2I7); assay: biochemical PIKfyve mobility shift assay (Nanosyn)
T1 construct: purchased Nanosyn, Santa Clara, CA, USA (contract assay service)

VEEV (TC-83) = assay: microbe, parasite or virus in culture; assay type: cell-based; conditions: Venezuelan equine encephalitis virus, U-87 MG, 18 h, read-out: VEEV (TC-83) EC50
SARS-CoV-2 = assay: microbe, parasite or virus in culture; assay type: cell-based, severe acute respiratory syndrome coronavirus 2; conditions: for EC50: Severe acute respiratory syndrome coronavirus 2, VeroE6/TMPRSS2, 24 h, read-out: SARS-CoV2 EC50
[1] = cell viability (AlamarBlue) in SARS-CoV-2-infected Vero E6/TMPRSS2 cells; assay type: cell-based; conditions: African green monkey, Vero E6/TMPRSS2 cells infected with SARS-CoV-2, half-maximal cytotoxic concentration, read-out: SARS-CoV2 CC50
U-87 MG cells = conditions: half-maximal cytotoxic concentration
Capan-1 = assay: cell proliferation assay (MTS, 72 h); conditions: Homo sapiens, CAPAN-1, 72 h, read-out: CC50 Capan-1
HCT-116 = assay: cell proliferation assay (MTS, 72 h); conditions: Homo sapiens, HCT-116, 72 h, read-out: CC50 HCT-116
LN-229 = assay: cell proliferation assay (MTS, 72 h); conditions: Homo sapiens, LN-229, 72 h, read-out: CC50 LN-229
NCI-H460 = assay: cell proliferation assay (MTS, 72 h); conditions: Homo sapiens, NCI-H460, 72 h, read-out: CC50 NCI-H460
DND-41 = assay: cell proliferation assay (MTS, 72 h); conditions: DND41, 72 h, read-out: CC50 DND-41
HL-60 = assay: cell proliferation assay (MTS, 72 h); conditions: Homo sapiens, HL-60, 72 h, read-out: CC50 HL-60
K-562 = assay: cell proliferation assay (MTS, 72 h); conditions: Homo sapiens, K562, 72 h, read-out: CC50 K-562
Z-138 = assay: cell proliferation assay (MTS, 72 h); conditions: Homo sapiens, Z-138, 72 h, read-out: CC50 Z-138
PIP4K2C = biological target: T2, PIP4K2C (Homo sapiens, UniProt Q8TBX8); assay: PIP4K2C binding assay (DiscoverX/Kinome platform)
T2 sequence (Q8TBX8 1-421): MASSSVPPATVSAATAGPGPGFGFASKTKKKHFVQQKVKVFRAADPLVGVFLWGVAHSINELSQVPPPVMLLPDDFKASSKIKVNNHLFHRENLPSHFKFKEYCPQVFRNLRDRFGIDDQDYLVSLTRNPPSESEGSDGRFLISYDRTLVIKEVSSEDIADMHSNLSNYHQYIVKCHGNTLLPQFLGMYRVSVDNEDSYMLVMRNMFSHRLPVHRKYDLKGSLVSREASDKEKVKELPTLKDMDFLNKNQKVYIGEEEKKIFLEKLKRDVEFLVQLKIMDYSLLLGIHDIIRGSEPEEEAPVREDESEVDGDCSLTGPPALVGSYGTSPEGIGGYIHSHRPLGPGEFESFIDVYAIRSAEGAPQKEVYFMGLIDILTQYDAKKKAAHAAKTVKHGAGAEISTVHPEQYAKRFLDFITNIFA

T1 sequence (Q9Y2I7 whole entry): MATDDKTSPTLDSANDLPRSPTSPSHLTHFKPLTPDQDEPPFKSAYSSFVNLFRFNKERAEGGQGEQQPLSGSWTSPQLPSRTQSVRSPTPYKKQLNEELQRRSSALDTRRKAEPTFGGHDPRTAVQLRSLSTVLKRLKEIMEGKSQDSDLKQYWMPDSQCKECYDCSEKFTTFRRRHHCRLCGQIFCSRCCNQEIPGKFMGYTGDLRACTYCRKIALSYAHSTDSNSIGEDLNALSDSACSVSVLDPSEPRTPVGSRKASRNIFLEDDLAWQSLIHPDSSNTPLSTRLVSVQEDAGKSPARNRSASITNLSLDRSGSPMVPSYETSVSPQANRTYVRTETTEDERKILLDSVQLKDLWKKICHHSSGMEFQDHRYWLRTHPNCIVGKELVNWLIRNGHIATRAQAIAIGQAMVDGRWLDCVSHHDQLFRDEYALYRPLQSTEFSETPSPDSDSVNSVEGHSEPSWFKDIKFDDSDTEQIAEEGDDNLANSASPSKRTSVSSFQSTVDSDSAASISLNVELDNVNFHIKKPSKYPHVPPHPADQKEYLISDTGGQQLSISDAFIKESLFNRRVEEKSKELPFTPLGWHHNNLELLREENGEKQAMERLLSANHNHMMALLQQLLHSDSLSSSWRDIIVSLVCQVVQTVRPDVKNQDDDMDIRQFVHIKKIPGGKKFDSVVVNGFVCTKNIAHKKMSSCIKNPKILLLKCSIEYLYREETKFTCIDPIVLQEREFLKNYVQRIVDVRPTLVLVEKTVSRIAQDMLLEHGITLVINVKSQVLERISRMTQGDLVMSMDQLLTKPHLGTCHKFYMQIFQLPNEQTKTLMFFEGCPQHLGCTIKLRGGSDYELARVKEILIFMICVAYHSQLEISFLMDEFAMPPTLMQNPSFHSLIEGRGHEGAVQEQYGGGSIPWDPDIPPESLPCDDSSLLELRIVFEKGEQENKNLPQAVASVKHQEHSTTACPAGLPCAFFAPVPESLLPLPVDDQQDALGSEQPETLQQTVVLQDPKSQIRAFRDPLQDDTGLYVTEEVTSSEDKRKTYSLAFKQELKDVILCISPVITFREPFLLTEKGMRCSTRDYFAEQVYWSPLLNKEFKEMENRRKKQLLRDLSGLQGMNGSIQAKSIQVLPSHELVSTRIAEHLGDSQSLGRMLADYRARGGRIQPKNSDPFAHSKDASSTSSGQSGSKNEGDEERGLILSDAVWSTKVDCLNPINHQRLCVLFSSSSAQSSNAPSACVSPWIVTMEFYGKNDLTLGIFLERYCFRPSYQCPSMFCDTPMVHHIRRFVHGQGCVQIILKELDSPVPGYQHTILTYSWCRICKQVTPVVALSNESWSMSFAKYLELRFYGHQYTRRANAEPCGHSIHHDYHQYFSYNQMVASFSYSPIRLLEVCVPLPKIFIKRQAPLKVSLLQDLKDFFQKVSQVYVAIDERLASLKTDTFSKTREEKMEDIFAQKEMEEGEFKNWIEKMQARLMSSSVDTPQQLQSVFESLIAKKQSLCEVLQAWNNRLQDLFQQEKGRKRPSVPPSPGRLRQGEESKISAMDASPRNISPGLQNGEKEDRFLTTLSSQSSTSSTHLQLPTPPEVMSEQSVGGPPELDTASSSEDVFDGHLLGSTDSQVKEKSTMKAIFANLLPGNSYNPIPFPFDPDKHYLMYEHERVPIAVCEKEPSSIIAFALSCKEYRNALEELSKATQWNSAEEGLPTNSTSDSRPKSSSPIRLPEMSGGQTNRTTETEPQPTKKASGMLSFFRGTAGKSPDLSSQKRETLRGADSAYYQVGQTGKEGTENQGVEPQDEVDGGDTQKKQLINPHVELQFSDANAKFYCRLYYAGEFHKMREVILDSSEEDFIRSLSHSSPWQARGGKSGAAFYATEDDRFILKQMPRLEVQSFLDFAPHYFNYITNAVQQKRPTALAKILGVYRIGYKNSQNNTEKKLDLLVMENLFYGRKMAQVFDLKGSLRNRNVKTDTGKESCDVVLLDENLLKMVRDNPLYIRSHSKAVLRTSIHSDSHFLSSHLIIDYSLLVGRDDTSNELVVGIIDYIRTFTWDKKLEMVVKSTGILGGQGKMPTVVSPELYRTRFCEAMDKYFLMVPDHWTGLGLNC

Structure (SMILES)	IC50 (PIKfyve; Table 5 column)	IC50 (PIKfyve; Tables 1-4 and text)	EC50 (VEEV (TC-83))	EC50 (SARS-CoV-2)	CC50 [1]	VEEV (TC-83) CC50 (U-87 MG cells)	CC50 (Capan-1)	CC50 (HCT-116)	CC50 (LN-229)	CC50 (NCI-H460)	CC50 (DND-41)	CC50 (HL-60)	CC50 (K-562)	CC50 (Z-138)	Kd (PIP4K2C)	IC50 (PIKfyve; values given in text in nM)	fold less potent on PIKfyve relative to RMC-113 (PIKfyve; ratio of IC50 values)	SARS-CoV-2 screening, result in words (SARS-CoV-2; Vero E6/TMPRSS2 cells)
NC(=O)c1ccc(-c2cnc3c(C#Cc4cccnc4)snc3c2)cc1 [Compound 3m, 4-(3-(Pyridin-3-ylethynyl)isothiazolo[4,3-b]pyridin-6-yl)benzamide]	1.6 nM	1.6 nM	190 ± 1 nM	1820 ± 940 nM	> 20000 nM	>20000 nM	2410 ± 940 nM	340 ± 780 nM	3230 ± 780 nM	2900 ± 1720 nM	2250 ± 190 nM	1000 ± 570 nM	6530 ± 460 nM	960 ± 300 nM	41 nM			
COc1cc(-c2cnc3c(C#Cc4cccnc4)snc3c2)ccc1N [Compound 3f, 2-Methoxy-4-(3-(pyridin-3-ylethynyl)isothiazolo[4,3-b]pyridin-6-yl)aniline]	2.8 nM	2.8 nM	260 ± 80 nM	2740 ± 40 nM	> 20000 nM	>20000 nM									44 nM			
COc1ccc(-c2cnc3c(C#Cc4cncc(C)c4)snc3c2)cc1OC [Compound 7i, 6-(3,4-Dimethoxyphenyl)-3-((5-methylpyridin-3-yl)ethynyl)isothiazolo[4,3-b]pyridine]		2 nM					14600 ± 2970 nM	≥ 74000 nM	> 100000 nM	> 100000 nM	> 100000 nM	> 100000 nM	> 100000 nM	70200 ± 2550 nM		2 nM		
Ic1cccc(/C=N/Nc2nc(N3CCOCC3)nc(N(c3ccccc3)c3ccccc3)n2)c1 [Vacuolin-1, reference compound]							900 ± 130 nM	1870 ± 750 nM	6350 ± 1800 nM	1460 ± 160 nM	24100 ± 1210 nM	26400 ± 1480 nM	17200 ± 3080 nM	16600 ± 1310 nM				
Clc1cccc(-c2cnc3c(C#Cc4cccnc4)snc3c2)c1 [Compound 3i, 6-(3-Chlorophenyl)-3-(pyridin-3-ylethynyl)isothiazolo[4,3-b]pyridine]	21 nM	21 nM													180 nM			
COCCNC(=O)c1cccc(-c2cnc3c(C#Cc4cccnc4)snc3c2)c1 [Compound 3s, N-(2-Methoxyethyl)-3-(3-(pyridin-3-ylethynyl)isothiazolo[4,3-b]pyridin-6-yl)benzamide]	1.9 nM	1.9 nM	400 ± 80 nM	5650 ± 1490 nM	> 20000 nM	>10000 nM									30 nM			
Fc1ccc(-c2cnc3c(C#Cc4cccnc4)snc3c2)cc1 [Compound 3g, 6-(4-Fluorophenyl)-3-(pyridin-3-ylethynyl)isothiazolo[4,3-b]pyridine]		10 nM					730 ± 230 nM	810 ± 160 nM	4390 ± 940 nM	1460 ± 360 nM	3060 ± 1710 nM	1510 ± 710 nM	5180 ± 480 nM	1030 ± 200 nM				
COc1cc(-c2cnc3c(C#Cc4cccnc4)snc3c2)ccc1C(=O)O [Compound 4, 2-Methoxy-4-(3-(pyridin-3-ylethynyl)isothiazolo[4,3-b]pyridin-6-yl)benzoic acid]	49 nM	49 nM	8700 ± 1700 nM	360 ± 190 nM	> 20000 nM	>10000 nM									68 nM			
COc1ccc(-c2cnc3c(C#Cc4ccccc4F)snc3c2)cc1OC [Compound 7e, 6-(3,4-Dimethoxyphenyl)-3-((2-fluorophenyl)ethynyl)isothiazolo[4,3-b]pyridine]	62 nM	62 nM	16800 ± 1250 nM	550 ± 150 nM	15700 ± 1340 nM	>20000 nM									280 nM			
COc1ccncc1C#Cc1snc2cc(-c3ccc(OC)c(OC)c3)cnc12 [Compound 7o, 6-(3,4-Dimethoxyphenyl)-3-((4-methoxypyridin-3-yl)ethynyl)isothiazolo[4,3-b]pyridine]	19 nM	19 nM	920 ± 80 nM		< 10000 nM	7690 ± 1 nM									230 nM			
COc1cccc(-c2cnc3c(C#Cc4cccnc4)snc3c2)c1 [Compound 3a, 6-(3-Methoxyphenyl)-3-(pyridin-3-ylethynyl)isothiazolo[4,3-b]pyridine]	6.8 nM	6.8 nM	6880 ± 330 nM		< 10000 nM	>10000 nM									190 nM			
COc1ccc(-c2cnc3c(C#Cc4cnc5ccccc5c4)snc3c2)cc1OC [Compound 7w, 6-(3,4-Dimethoxyphenyl)-3-(quinolin-3-ylethynyl)isothiazolo[4,3-b]pyridine]	5690 nM	5690 nM	2080 ± 100 nM		< 10000 nM	>10000 nM									2000 nM		700 fold	only cytotoxicity was observed
COc1ccccc1-c1cnc2c(C#Cc3cccnc3)snc2c1 [Compound 3b, 6-(2-Methoxyphenyl)-3-(pyridin-3-ylethynyl)isothiazolo[4,3-b]pyridine]		6.8 nM					1020 ± 90 nM	1020 ± 1240 nM	3280 ± 1240 nM	2970 ± 750 nM	3920 ± 720 nM	1480 ± 1130 nM	5270 ± 590 nM	1810 ± 690 nM				
C(#Cc1snc2cc(-c3ccc(OCCN4CCCC4)cc3)cnc12)c1cccnc1 [Compound 5b, 3-(Pyridin-3-ylethynyl)-6-(4-(2-(pyrrolidin-1-yl)ethoxy)phenyl)isothiazolo[4,3-b]pyridine]		5.5 nM	710 ± 90 nM	1420 ± 140 nM	> 20000 nM	>10000 nM												
COc1ccc(-c2cnc3c(C#Cc4cnccc4C)snc3c2)cc1OC [Compound 7p, 6-(3,4-Dimethoxyphenyl)-3-((4-methylpyridin-3-yl)ethynyl)isothiazolo[4,3-b]pyridine]		33 nM	4010 ± 130 nM	830 ± 60 nM	> 20000 nM	>10000 nM	> 100000 nM	> 100000 nM	> 100000 nM	> 100000 nM	> 100000 nM	> 100000 nM	> 100000 nM	12300 ± 1770 nM				
COc1ccc(-c2cnc3c(C#Cc4ccc(C#N)nc4)snc3c2)cc1OC [Compound 7q, 5-((6-(3,4-Dimethoxyphenyl)isothiazolo[4,3-b]pyridin-3-yl)ethynyl)picolinonitrile]		> 10000 nM													> 30000 nM			
Fc1ccccc1-c1cnc2c(C#Cc3cccnc3)snc2c1 [Compound 3h, 6-(2-Fluorophenyl)-3-(pyridin-3-ylethynyl)isothiazolo[4,3-b]pyridine]		8.8 nM	6930 ± 130 nM	1340 ± 500 nM	> 20000 nM	>20000 nM												
COc1ccc(-c2cnc3c(C#Cc4cncc(F)c4)snc3c2)cc1OC [Compound 7r, 6-(3,4-Dimethoxyphenyl)-3-((5-fluoropyridin-3-yl)ethynyl)isothiazolo[4,3-b]pyridine]	98 nM	98 nM	1850 ± 120 nM	1920 ± 520 nM	> 20000 nM	>10000 nM									110 nM			
